# Tests used:
# Bovine brain tubulin = assay: Inhibition of purified tubulin assembly (turbidity); format: biochemical; conditions: 10 µM tubulin, 30 °C; read-out: Inhibition of Tubulin Assembly IC50 ± SD
# Description: Bovine brain tubulin was purified as described previously. The tubulin assembly assay has been described in detail. Briefly, 1.0 mg/mL of tubulin (10 µM) was preincubated for 15 min at 30 °C in 0.8 M monosodium glutamate (pH of 2 M stock solution adjusted to 6.6 with HCl), varying compound concentrations and 4% (v/v) DMSO as compound solvent. After the preincubation, the reaction mixtures were placed on ice and 0.4 mM GTP was added. The reaction mixtures were transferred to cuvettes at 0 °C in a recording spectrophotometer equipped with an electronic temperature controller. After baselines were established, the temperature was elevated over about 30 s to 30 °C, and changes in turbidity were monitored at 350 nm for 20 min. The compound concentration that caused a 50% reduction in increase in turbidity, interpolated from the values obtained with defined compound concentrations, was defined as the IC50 value. The assay to measure inhibition of [^3H]colchicine binding was described in detail previously. Briefly, 0.1 mg/mL (1.0 µM) tubulin was incubated at 37 °C with 5.0 µM [3H]colchicine and potential inhibitors at 5.0 µM. Incubation was for 10 min, at which point the reaction had reached 40–60% of the maximum colchicine that can be bound in reaction mixtures without inhibitor. The [^3H]colchicine was a product of PerkinElmer, USA. CA-4 was a generous gift of Dr. G. R. Pettit, Arizona State University.
# HeLa cells = assay: SRB assay in HeLa cells; format: cell-based; conditions: Homo sapiens, read-out: IC50 ± SD in HeLa
# Description: Compounds 4–8, 10, 12, and 13 were evaluated for their abilities to overcome βIII-tubulin mediated drug resistance using an isogenic HeLa cell line pair (Table 4). […] The Rr values (Table 4) were calculated by dividing the IC50 of the βIII-tubulin expressing line by the IC50 obtained in the parental HeLa cells.
# The antiproliferative and cytotoxic effects of the compounds in cancer cells were evaluated using the SRB assay as previously described. MDA-MB-435 cells were obtained from the Lombardi Cancer Center of Georgetown University (Washington, DC, USA). SK-OV-3 and HeLa cells were purchased from ATCC. Details about the generation of the SK-OV-3 MDR1-M6/6 and HeLa WTβIII cells were described previously. The IC50 values represent an average of three independent experiments, each conducted using triplicate points.
# HeLa, A-10, SK-OV-3, and SK-OV-3 MDR1-M6/6 cells were grown in Basal Medium Eagle (Sigma-Aldrich, St. Louis, MO, USA) supplemented with 10% FBS (Hyclone, GE Life Sciences, Logan, UT, USA) 1% GlutaMAX (Gibco, Life Technologies, Waltham, MA, USA) and 50 µg/mL gentamycin (Life Technologies, USA). HeLa WTβIII cells were grown in Dulbecco’s Modified Eagle Medium (Life Technologies) supplemented with 10% FBS and 50 µg/mL gentamycin. MDA-MB-435 cells were maintained in Improved Minimum Essential Medium (Life Technologies) supplemented with 10% FBS and 25 µg/mL gentamycin. All cells were grown at 37 °C in a humidified environment with 5% CO2.
# MDA-MB-435 tumors = assay: MDA-MB-435 xenograft model; format: in vivo, nude mice; conditions: 75 mg/kg i.p. 3 × a week
# Description: Compound 4 was selected for further evaluation in an in vivo xenograft mouse study in light of its nanomolar potency in vitro in the NCI-60 cancer cell line panel and its potent microtubule depolymerization activity. The in vivo effects of 4 were tested in the MDA-MB-435 xenograft model (Figure 5).
# MDA-MB-435 tumor fragments were implanted s.c. into the flanks of female nude mice. […] Compound 4 was dissolved in a 50:50 Cremophor EL/DMSO mixture and further dissolved in PBS for a final concentration of 10:10:80 Cremophor EL:DMSO:PBS (v/v). […] Tumor volumes and mouse weights were measured 2–3 times a week. A two-way ANOVA with Dunnett’s post-hoc tests including all treatment groups in the trial was used to determine significant differences in tumor volumes between drug-treated and untreated control groups on each measurement day. These animal studies were performed at the University of Texas Health Science Center in San Antonio in compliance with an approved Institutional Animal Care and Use protocol.
# MDA-MB-435 tumors were implanted into the flanks of nude mice and allowed to grow until they reached a volume of ~200 mm^3. […] Tumor volumes and mouse weights were measured 2–3 times a week. Statistical significance was evaluated by two-way ANOVA (time vs. drug) with Dunnett’s post-hoc tests. A statistically significant difference in tumor volume was detected on day 14 between mice treated with 4 (* p = 0.0384) and untreated control tumors.
# NCI-H460 = assay: NCI-60 growth inhibition, NCI-H460; format: cell-based; conditions: Homo sapiens, NSCLC
# From the text: (§1) Compound 4 had better potency than the lead compound 1 in 50 cancer cell lines. (better by 5 to 6-fold in leukemia, 2 to 17-fold in NSCLC, 2 to 6-fold in colon cancer, 2 to 5-fold in CNS cancer, 2 to 25-fold in melanoma, 2 to 5-fold in ovarian cancer, 2 to 9-fold in renal cancer, 2 to 5-fold in prostate cancer, and 2 to 6-fold in breast cancer compared to lead compound 1).
# NCI-H522 = assay: NCI-60 growth inhibition, NCI-H522; format: cell-based; conditions: Homo sapiens, NSCLC
# From the text: as §1
# COLO 205 = assay: NCI-60 growth inhibition, COLO 205; format: cell-based; conditions: Homo sapiens, Colon Cancer
# From the text: as §1
# HCC-2998 = assay: NCI-60 growth inhibition, HCC-2998; format: cell-based; conditions: Homo sapiens, Colon Cancer
# From the text: as §1
# KM12 = assay: NCI-60 growth inhibition, KM12; format: cell-based; conditions: Homo sapiens, Colon Cancer
# From the text: as §1
# MALME-3M = assay: NCI-60 growth inhibition, MALME-3M; format: cell-based; conditions: Homo sapiens, Melanoma
# From the text: as §1
# SK-MEL-2 = assay: NCI-60 growth inhibition, SK-MEL-2; format: cell-based; conditions: Homo sapiens, Melanoma
# From the text: as §1
# OVCAR-4 = assay: NCI-60 growth inhibition, OVCAR-4; format: cell-based; conditions: Homo sapiens, Ovarian Cancer
# From the text: as §1
# UO-31 = assay: NCI-60 growth inhibition, UO-31; format: cell-based; conditions: Homo sapiens, Renal Cancer
# From the text: as §1
# HS 578T = assay: NCI-60 growth inhibition, HS 578T; format: cell-based; conditions: Homo sapiens, Breast Cancer
# From the text: as §1
# MDA-MB-468 = assay: NCI-60 growth inhibition, MDA-MB-468; format: cell-based; conditions: Homo sapiens, Breast Cancer
# From the text: as §1
structure (smiles),measurement,setting,value
"COc1ccc(N(C)c2nc(N)nc3sc4c(c23)CCCC4)cc1 [Compound 4, N4-(4-methoxyphenyl)-N4-methyl-5,6,7,8-tetrahydrobenzo[4,5]thieno[2,3-d]pyrimidine-2,4-diamine]",IC50,Bovine brain tubulin,820 ± 40 nM
same,IC50,HeLa cells,13.5 ± 1.5 nM
same,Antitumor effects on MDA-MB-435 tumor volume vs control,MDA-MB-435 tumors; day 14,statistically significant antitumor effects
same,Weight loss,MDA-MB-435 tumors; nude mice,moderate weight loss
same,GI50,NCI-H460,10.4 nM
same,GI50,NCI-H522,6.87 nM
same,GI50,COLO 205,10.8 nM
same,GI50,HCC-2998,11.8 nM
same,GI50,KM12,13.4 nM
same,GI50,MALME-3M,12.2 nM
same,GI50,SK-MEL-2,11.8 nM
same,GI50,OVCAR-4,9.98 nM
same,GI50,UO-31,11.8 nM
same,GI50,HS 578T,13.5 nM
same,GI50,MDA-MB-468,6.05 nM

# — article PMC8747035, “Design, Synthesis, and Biological Evaluation of 5,6,7,8-Tetrahydrobenzo[4,5]thieno[2,3-d]pyrimidines as Microtubule Targeting Agents” (Molecules, 2022)
